Converted amounts (≈) assume the structure as drawn. Like-named read-outs stand apart in the source and are kept apart here.

For assay [1], the target named is B. anthracis NADS (Bacillus anthracis, UniProt Q81RP3). Briefly: biochemical.
Assay [2] has as its system Bacillus anthracis Sterne. Briefly: microbe, parasite or virus in culture. The format is cell-based. The settings on record: read-out: B.a. MIC.

B. anthracis NADS, sequence (Q81RP3 whole entry, looked up): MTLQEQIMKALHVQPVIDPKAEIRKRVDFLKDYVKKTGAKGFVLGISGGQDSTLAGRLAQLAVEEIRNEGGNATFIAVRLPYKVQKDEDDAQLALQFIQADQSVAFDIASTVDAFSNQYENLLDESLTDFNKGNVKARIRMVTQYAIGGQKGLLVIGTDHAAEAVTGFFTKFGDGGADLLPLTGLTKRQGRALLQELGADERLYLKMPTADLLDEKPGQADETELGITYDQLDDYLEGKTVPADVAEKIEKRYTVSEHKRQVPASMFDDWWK

On to `O=C(Cn1cc(/C=C/c2[nH]c(=O)[nH]c(=O)c2[N+](=O)[O-])c2ccccc21)Nc1ccc(F)cc1` [Compound 5615], for which the IC50 in assay [1] and in assay [1] (read-out: NADs IC50) was 55.4 µM each time.

Turning to `O=C(Nc1cccc(/N=C/c2cc([N+](=O)[O-])ccc2O)c1)c1ccc(Cl)cc1Cl` [Compound 5691], 106 µM corresponded to half-maximal inhibition in assay [1] (IC50).

In the case of `CCc1ccc(S(=O)(=O)Nc2c([N+](=O)[O-])ccc3ccccc23)cc1` [Compound 5599], the MIC in assay [2] is 3.75 µM (≈ 1.34 µg/mL).

In turn, `N/C(=N\OC(=O)c1ccc(Cl)c(Cl)c1)c1cccc(CSc2ccccn2)c1` [Compound 5775] yielded a concentration for half-maximal inhibition (IC50) in assay [1] of 290 µM. Consider `COc1ccc(NC(=O)Nc2cccc(NC(=O)Nc3ccc(OC)cc3)c2F)cc1` [Compound 5707], for which the IC50 in assay [1] was found to be 253 µM. Same read-out and setting: as for `O=[N+]([O-])c1ccc(-c2cnc(N/N=C/c3cccc([N+](=O)[O-])c3)nc2)cc1` [Compound 5591], the figure is 160 µM; as for `NC(=O)c1ccc(/N=C/c2cc([N+](=O)[O-])ccc2Cl)cc1` [Compound 5679], 262 µM.

One may read the IC50 as the concentration that inhibits the measured activity by half.

Values taken from paper PMC2666046 (Bioorganic & medicinal chemistry letters, 2009).
